Data: patent US9386766B2, “Insect attractant compositions” (University of Greenwich, priority 2009, dated 2016)

Tests used:
H. armigera [1] = assay: Field trials in India and Bangladesh: floral bait trap catches, Trials 1-5 (Example 2); format: in vivo, Helicoverpa armigera; settings: Trial 1; for Total catches H. armigera: Cotton
Source text: (§1) In addition, five pheromone baited traps (baited with the pheromone of the key Helicoverpa and related spp.) were used as standards for each target species. Lures were changed every two to three weeks.
(§2) The choice of pheromone trap depended on local availability. In India, the preferred trap was the standard Pheromone Chemicals Ltd. plastic funnel trap, while in Bangladesh a plastic water trap was used. Pheromone lures for the trials were provided by NRI. In India and Bangladesh, H. armigera, Maruca vitrata, Earias vittella and Pectinophora gossypiella lures were provided.
(§3) The floral baits were provided in sealed lay-flat polyethylene sachets. The sachets were hung inside the traps in the same way as the pheromone lures. Traps were supported at crop height and the height was adjusted periodically to account for crop growth. Yellow-coloured traps were avoided in order to deter pollinators. Preferably, traps should be colourless or green-coloured. Trap covers were opaque. Where necessary, a killing agent was incorporated into each trap—to ensure insects were dead before opening the trap to count catches.
(§4) Trial 1 was designed to investigate the effect of altering the relative amount of the two main components, phenylacetaldhyde and salicylaldehyde on catch. The trial was laid out in cotton fields at four locations: Narakoduru and Jammikunta in Andhra Pradesh, India, and Shreepur and Jessore in Bangladesh.
In Trial 2, the standard 5-component blend used in Example 1 (96/12) was compared to: Magnet® (96/10), Li et al. (2005) (96/11) and a binary blend of phenylacetaldehyde and salicylaldehyde (96/13).
In Trial 3, a third component was added to a roughly 70:30 blend of phenylacetaldehyde:salicylaldehyde, to assess whether the additional compound made the binary blend more attractive to nocturnal Lepidoptera. The compositions of the blends tested are shown in Table 11 and the results in Table 12.
In Trial 4, two compounds were added to a 70:30 blend of phenylacetaldehyde:salicylaldehyde, to assess whether the additional compounds made the binary blend more attractive to nocturnal Lepidoptera. The compositions of the blends tested are shown in Table 13 and the results in Table 14.
In Trial 5, the three compounds, methyl 2-methoxybenzoate, linalool and limonene were added to the binary 70:30 blend of phenylacetaldehyde:salicylaldehyde in two ratios, 1:1:1 and 1:1:0.5 at 3, 9, 30 and 90% w/w of the binary blend, to assess whether the additional compounds made the binary blend more attractive to nocturnal Lepidoptera. The compositions of the blends tested are shown in Table 15 and the results in Table 16.

All Lepidoptera = assay: Field trials in India: floral bait trap catches, Trials 1-5 (Example 2); format: in vivo; settings: Trial 1; for Total catches All Lepidoptera: Cotton; for Attractiveness to the non-target species recorded: species of Table 17
Source text: as §1, §2, §3, §4
In India, records were taken of all Lepidopterous species caught in the traps. The total Lepidoptera catches reflected the general trends in H. armigera catches. […] Thus blends containing between 3 and 30 percent salicylaldehyde relative to phenylacetaldehyde were on average the most attractive of the binary blends tested. […]

Apis mellifera = assay: Floral bait trap catches of non-target insects (Example 2); format: in vivo; settings: Trial 1; Narakoduru, Warangal District, AP, India; Cotton
Source text: as §1, §2, §3
(§5) In Tables 17 to 23 the total catches of selected Lepidoptera, Hymenoptera (Apis mellifera and Bombus spp.) and Diptera are shown.

Autographa gama = assay: as above; format: in vivo; settings: Trial 1; Narakoduru, Warangal District, AP, India; Cotton
Source text: as §1, §2, §3, §5

Bombus spp. = assay: as above; format: in vivo; settings: Trial 1; Narakoduru, Warangal District, AP, India; Cotton
Source text: as §1, §2, §3, §5

Diaphania indica = assay: as above; format: in vivo; settings: Trial 1; Narakoduru, Warangal District, AP, India; Cotton
Source text: as §1, §2, §3, §5

Diptera = assay: as above; format: in vivo; settings: Trial 1; Narakoduru, Warangal District, AP, India; Cotton
Source text: as §1, §2, §3, §5

Lampides boeticus = assay: as above; format: in vivo; settings: Trial 1; Narakoduru, Warangal District, AP, India; Cotton
Source text: as §1, §2, §3, §5

Other Lepidoptera = assay: as above; format: in vivo; settings: Trial 1; Narakoduru, Warangal District, AP, India; Cotton
Source text: as §1, §2, §3, §5

Parnara guttatus = assay: as above; format: in vivo; settings: Trial 1; Narakoduru, Warangal District, AP, India; Cotton
Source text: as §1, §2, §3, §5

Spodoptera litura = assay: as above; format: in vivo; settings: Trial 1; Narakoduru, Warangal District, AP, India; Cotton
Source text: as §1, §2, §3, §5

H. armigera [2] = assay: Field trials in India and Bangladesh: floral bait trap catches, Trials 1-5 (Example 2); format: in vivo, Helicoverpa armigera; settings: Trial 1; Jessore; Country bean
H. armigera [3] = assay: Field trials in Bangladesh: trap catch with floral odour lures (Example 1); format: in vivo, Helicoverpa armigera; settings: Table 1; increasing relative amount of minor components; adult H. armigera
Protocol: Lures were prepared from heat-sealed low density polyethylene sachets formed from ‘layflat plastic’ tubing. In early field work, the lures were prepared on site, with each lure comprising a single compound in a dose of 0.1 ml. The release rate of compounds from the polyethylene sachets is independent of the amount of material in the sachet and so a particular dosage affects longevity only. Longevity, in turn, is dependent on ambient temperature, with an increase of 7-10° C. leading to a doubling of the release rate. Water traps were placed at crop height and trap catches were taken as a crude measure of attractiveness to the compounds. As the compounds mimic ‘floral odours’ generally, they were not expected to be species-specific in their effect.
During testing, different combinations of floral odours, together with H. armigera pheromone, were used as attractants. The chemicals were put inside sealed plastic sachets (10×5 cm) and the sachets were hung inside traps prepared from clear plastic pots (19 cm height, 15 cm dia.) with two triangular holes (12 cm base, 9 cm height) at opposite sides. The traps were set at 1 m height with an inter-trap distance of 10 m. Insects that were trapped by the lures were collected, identified and recorded at weekly intervals.

[4] = test system: female Helicoverpa armigera; settings: Pawar et al., 1993; cited from earlier work

Row | Compound | Attractiveness to H. armigera (H. armigera [1]) | Total catches H. armigera (H. armigera [1]; Jammikunta KVK) | Total catches H. armigera (H. armigera [1]; Jessore) | Total catches H. armigera (H. armigera [1]; Narakoduru, Guntur) | Total catches H. armigera (H. armigera [1]; Shreepur) | Total catches All Lepidoptera (All Lepidoptera; Jammikunta KVK) | Total catches All Lepidoptera (All Lepidoptera; Narakoduru, Guntur) | Attractiveness to the non-target species recorded (All Lepidoptera) | Total catches Apis mellifera (Apis mellifera) | Total catches Autogr. gama (Autographa gama) | Total catches Bombus spp. (Bombus spp.) | Total catches Diaphania indica (Diaphania indica) | Total catches Diptera (Diptera) | Total catches Lampides boeticus (Lampides boeticus) | Total catches Other Lepidop. (Other Lepidoptera) | Total catches Parnara guttat. (Parnara guttatus) | Total catches Spodopt. litura (Spodoptera litura) | Total catches H. armigera (H. armigera [2]) | H. armigera Catch (H. armigera [3]) | Attraction of female Helicoverpa armigera [4]
1 | O=Cc1ccccc1O [96/01, salicylaldehyde] | attractive | 0 | 16 | 0 | 1 | 3 | 8 | unattractive | 10 | 0 | 0 | 1 | 1 | 0 | 6 | 0 | 1 | 3 | – | –
2 | O=CCc1ccccc1 [96/09, phenylacetaldehyde] | – | 1 | 30 | 1 | 20 | 15 | 94 | attractive | 18 | 12 | 1 | 13 | 8 | 1 | 67 | 14 | 1 | 0 | 9 | strong attractant
